Measured values from patent US6939887B2, “Benzimidazolidinone derivatives” (Sumitomo Pharmaceuticals Co., Ltd., priority 2001, dated 2005).
Where a name gives a salt, the structure may show the parent alone.

System: pituitary cells (growth hormone release)
Experiment: GH release promoting activity in cultured rat pituitary cells (GH level of supernatant by RIA)
Format: cell-based, rat (Wistar/ST)
Conditions: compound concentration 10000 nM, 15 min at 37° C.
Protocol: Benzimidazolidinone derivatives of the present invention were evaluated for their growth hormone (GH) release promoting activity by reference to the method described in a literature (R. G. Smith et al., Science, 260, 1640 (1993)).
Pituitary glands removed from 7-week-old male Wistar/ST rats were washed three times with HBSS(−) and the tissue was minced into small pieces (ca. 1 mm square) using a pair of scissors. The tissues were transferred to a 15 ml round-bottom centrifuge tube and washed three times with HBSS(−) (10 ml). An enzyme solution (0.1 ml per one pituitary gland) was added and enzymatic digestion was started in a water bath at 37° C. During the process, the mixture was pipetted every 5 minutes and the treatment was continued for ca 20-30 min until the cells were dispersed. The resulting cell suspension was centrifuged at 1200 rpm for 2-3 min at room temperature and the supernatant was discarded. A culture medium (8 ml) was added. Similar procedure was repeated twice and the dispersed cells were washed. The cells were plated in a 96-well plate (1×10^4 cells/100 μl/well) and incubation was started at 37° C. under 5% CO2 atmosphere.
Three days after the start of the culture, the supernatant was discarded and an assay medium was added. The cells were incubated for 1.5 h and washed once with the assay medium. A test compound solution was added and the cells were reacted at 37° C. for 15 min in an incubator under 5% CO2. The supernatant was recovered and the GH level thereof was measured by RIA.
A sample (50 μl) diluted with RIA buffer (1% BSA, 0.1% NaN3 and 25 mM EDTA/PBS (pH 7.6)), [^125I]-labeled GH solution (50 μl, ca. 10,000 cpm), and rabbit antiserum (diluted 1,000-fold) against rat GH (50 μl, Biogenesis Co) were placed in each well of a 96-well plate for RIA (Coster Co) and the mixture was reacted for 3 days at 4° C. Cell membrane fractions containing protein A were added and the mixture was allowed to stand for 20 min and centrifuged. The supernatant was recovered and the precipitates were washed with the RIA buffer. The ^125I amount was measured. The GH level of the sample was calculated from the standard curve drawn using the standard GH.
The composition of the culture medium was DMEM containing 10% horse serum, 2.5% fetal bovine serum, 1% nonessential amino acids, 1% antibiotics. The composition of the assay medium was 25 mM HEPES/culture medium (pH 7.3). The test compound solution was prepared by adding a compound solution (1 μl), adjusted to 1000-fold concentration with DMSO, to an assay medium (1 ml). Collagenase (400 mg), DNase type I (1 mg), and BSA (1 g) were dissolved in a 25 mM HEPES buffer (pH 7.4, 40 ml) containing 0.8% NaCl, 0.037% KCl, 0.9% glucose, 1% streptomycin-penicillin and 0.7 mM Na2HPO4, and 1 mg/ml CaCl2 (226 μl) was added. The resulting solution was adjusted to a final volume of 50 ml by adding a HEPES buffer and sterilized by filtration through a 0.22 μm filter and used as the enzyme solution.
The GH release promoting activity of the compounds of Examples is shown in the following. For the activity, the ratio of GH level of the supernatant in the presence of the test compound (compound concentration 10000 nM) to GH level of supernatant in the absence of the compound (GH level of supernatant in the presence of the compound/GH level of supernatant in the absence of the compound).

**Q.** How did the “GH release promoting activity = (GH level of supernatant in the presence of the compound)/(GH level of supernatant in the absence of the compound)” value (“GH release promoting activity =” below) turn out when `CCN(CC)CCn1c(=O)n(Cc2cccc(Cl)c2)c2c(C(F)(F)F)cc(C(N)=O)cc21` [Example 3, 1-(3-chlorobenzyl)-3-[2-(diethylamino)ethyl]-2-oxo-7-(trifluoromethyl)-2,3-dihydro-1H-benzimidazole-5-carboxamide trifluoroacetate] was run?
**A.** Its value is 1.2.

**Q.** How did the “GH release promoting activity =” value turn out when `CCN(CC)CCn1c(=O)n(Cc2ccccc2Cl)c2c(C(F)(F)F)cc(C(N)=O)cc21` [Example 5, 1-(2-chlorobenzyl)-3-[2-(diethylamino)ethyl]-2-oxo-7-(trifluoromethyl)-2,3-dihydro-1H-benzimidazole-5-carboxamide trifluoroacetate] was run?
**A.** The value was 1.3.

**Q.** For `CCN(CC)CCn1c(=O)n(-c2ccc(Cl)cc2)c2c(C(F)(F)F)cc(C(N)=O)cc21` [Example 7, 1-(4-chlorophenyl)-3-[2-(diethylamino)ethyl]-2-oxo-7-(trifluoromethyl)-2,3-dihydro-1H-benzimidazole-5-carboxamide trifluoroacetate], which “GH release promoting activity =” value is on record?
**A.** Its value is 3.0.

**Q.** `CCN(CC)CCn1c(=O)n(-c2ccc(Cl)cc2Cl)c2c(C(F)(F)F)cc(C(N)=O)cc21` [Example 8, 1-(2,4-dichlorophenyl)-3-[2-(diethylamino)ethyl]-2-oxo-7-(trifluoromethyl)-2,3-dihydro-1H-benzimidazole-5-carboxamide trifluoroacetate] was tested. Which “GH release promoting activity =” value did it give?
**A.** The value was 2.1.

**Q.** For `CCN(CC)CCn1c(=O)n(Cc2cccc(C(F)(F)F)c2)c2c(C(F)(F)F)cc(C(N)=O)cc21` [Example 9, 3-[2-(diethylamino)ethyl]-2-oxo-7-(trifluoromethyl)-1-[3-(trifluoromethyl)benzyl]-2,3-dihydro-1H-benzimidazole-5-carboxamide trifluoroacetate], which “GH release promoting activity =” value is on record?
**A.** Its value is 1.3.

**Q.** How did the “GH release promoting activity =” value turn out when `CCN(CC)CCn1c(=O)n(Cc2ccccc2C)c2c(C(F)(F)F)cc(C(N)=O)cc21` [Example 16, 3-[2-(diethylamino)ethyl]-1-(2-methylbenzyl)-2-oxo-7-(trifluoromethyl)-2,3-dihydro-1H-benzimidazole-5-carboxamide trifluoroacetate] was run?
**A.** Its value is 1.0.
